According to publication PMC12136037, “Type II kinase inhibitors that target Parkinson’s disease–associated LRRK2” (Science Advances, 2025):
Several values for one entry are separate records, joined by “and”; a condition that tells them apart may be missing. Equal values may be shown once.

Columns and labels:
Format in all cases: binding
[1] = biological target: T1, ~100 representative kinases (Homo sapiens, UniProt P11362); assay: DSF 100 kinase selectivity screen; details: protein FGFR1; average of three replicates;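 note: compound tested at 20 µM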
T1 construct: Recombinant protein kinase domains with a concentration of 2 μM
T1 sequence (P11362 22-822): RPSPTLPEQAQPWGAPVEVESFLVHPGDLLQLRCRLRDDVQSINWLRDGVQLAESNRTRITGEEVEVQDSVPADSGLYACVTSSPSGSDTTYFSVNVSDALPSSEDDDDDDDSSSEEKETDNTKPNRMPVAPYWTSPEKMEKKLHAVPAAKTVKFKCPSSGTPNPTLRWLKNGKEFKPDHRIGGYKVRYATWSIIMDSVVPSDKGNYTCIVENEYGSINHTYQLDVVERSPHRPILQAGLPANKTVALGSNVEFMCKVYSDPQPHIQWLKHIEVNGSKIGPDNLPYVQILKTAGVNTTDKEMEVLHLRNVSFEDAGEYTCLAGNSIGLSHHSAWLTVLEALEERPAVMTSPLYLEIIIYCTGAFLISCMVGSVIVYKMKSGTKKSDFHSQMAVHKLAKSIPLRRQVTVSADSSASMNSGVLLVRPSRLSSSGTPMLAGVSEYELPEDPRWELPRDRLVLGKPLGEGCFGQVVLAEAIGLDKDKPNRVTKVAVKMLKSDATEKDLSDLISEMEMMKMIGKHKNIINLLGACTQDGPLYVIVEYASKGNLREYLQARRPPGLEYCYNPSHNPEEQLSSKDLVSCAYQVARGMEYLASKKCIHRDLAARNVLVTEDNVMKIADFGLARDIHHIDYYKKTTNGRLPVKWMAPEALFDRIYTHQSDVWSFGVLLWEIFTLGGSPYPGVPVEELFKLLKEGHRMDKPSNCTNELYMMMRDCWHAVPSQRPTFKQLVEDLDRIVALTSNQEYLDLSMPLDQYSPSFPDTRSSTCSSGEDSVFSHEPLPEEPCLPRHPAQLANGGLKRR
Method: (§1) Recombinant protein kinase domains with a concentration of 2 μM were mixed with a 20 μM compound solution in dimethyl sulfoxide (DMSO), 20 mM Hepes (pH 7.5), and 500 mM NaCl. SYPRO Orange (5000×, Invitrogen) was added as a fluorescence probe (1μl/ml). Subsequently, temperature-dependent protein unfolding profiles were measured using the QuantStudio 5 realtime PCR machine (Thermo Fisher Scientific, Waltham, MA, USA). […] The temperature was raised with a step rate of 3°C/min. […] Differences in melting temperature are given as ΔTm values in degrees Celsius. […]

[2] = biological target: T2, ~100 representative kinases (Homo sapiens, UniProt P28482); assay: DSF 100 kinase selectivity screen; details: protein MAPK1; average of three replicates;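 note: compound tested at 20 µM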
T2 construct: Recombinant protein kinase domains with a concentration of 2 μM
T2 sequence (P28482 whole entry, the tested form may be a part): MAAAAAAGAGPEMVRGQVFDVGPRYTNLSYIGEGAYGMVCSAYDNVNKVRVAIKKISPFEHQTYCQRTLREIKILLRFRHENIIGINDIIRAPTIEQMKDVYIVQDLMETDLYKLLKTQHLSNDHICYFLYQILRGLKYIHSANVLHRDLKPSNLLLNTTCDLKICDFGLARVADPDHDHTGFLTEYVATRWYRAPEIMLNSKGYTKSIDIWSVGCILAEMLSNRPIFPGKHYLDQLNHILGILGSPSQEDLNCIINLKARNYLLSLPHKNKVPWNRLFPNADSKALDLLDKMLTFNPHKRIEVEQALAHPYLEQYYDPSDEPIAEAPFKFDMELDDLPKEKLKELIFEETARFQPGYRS
Method: as §1

[3] = biological target: T3, ~100 representative kinases (Homo sapiens, UniProt Q96PY6); assay: DSF 100 kinase selectivity screen; details: protein NEK1; average of three replicates;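 note: compound tested at 20 µM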
T3 construct: Recombinant protein kinase domains with a concentration of 2 μM
T3 sequence (Q96PY6 1-1258): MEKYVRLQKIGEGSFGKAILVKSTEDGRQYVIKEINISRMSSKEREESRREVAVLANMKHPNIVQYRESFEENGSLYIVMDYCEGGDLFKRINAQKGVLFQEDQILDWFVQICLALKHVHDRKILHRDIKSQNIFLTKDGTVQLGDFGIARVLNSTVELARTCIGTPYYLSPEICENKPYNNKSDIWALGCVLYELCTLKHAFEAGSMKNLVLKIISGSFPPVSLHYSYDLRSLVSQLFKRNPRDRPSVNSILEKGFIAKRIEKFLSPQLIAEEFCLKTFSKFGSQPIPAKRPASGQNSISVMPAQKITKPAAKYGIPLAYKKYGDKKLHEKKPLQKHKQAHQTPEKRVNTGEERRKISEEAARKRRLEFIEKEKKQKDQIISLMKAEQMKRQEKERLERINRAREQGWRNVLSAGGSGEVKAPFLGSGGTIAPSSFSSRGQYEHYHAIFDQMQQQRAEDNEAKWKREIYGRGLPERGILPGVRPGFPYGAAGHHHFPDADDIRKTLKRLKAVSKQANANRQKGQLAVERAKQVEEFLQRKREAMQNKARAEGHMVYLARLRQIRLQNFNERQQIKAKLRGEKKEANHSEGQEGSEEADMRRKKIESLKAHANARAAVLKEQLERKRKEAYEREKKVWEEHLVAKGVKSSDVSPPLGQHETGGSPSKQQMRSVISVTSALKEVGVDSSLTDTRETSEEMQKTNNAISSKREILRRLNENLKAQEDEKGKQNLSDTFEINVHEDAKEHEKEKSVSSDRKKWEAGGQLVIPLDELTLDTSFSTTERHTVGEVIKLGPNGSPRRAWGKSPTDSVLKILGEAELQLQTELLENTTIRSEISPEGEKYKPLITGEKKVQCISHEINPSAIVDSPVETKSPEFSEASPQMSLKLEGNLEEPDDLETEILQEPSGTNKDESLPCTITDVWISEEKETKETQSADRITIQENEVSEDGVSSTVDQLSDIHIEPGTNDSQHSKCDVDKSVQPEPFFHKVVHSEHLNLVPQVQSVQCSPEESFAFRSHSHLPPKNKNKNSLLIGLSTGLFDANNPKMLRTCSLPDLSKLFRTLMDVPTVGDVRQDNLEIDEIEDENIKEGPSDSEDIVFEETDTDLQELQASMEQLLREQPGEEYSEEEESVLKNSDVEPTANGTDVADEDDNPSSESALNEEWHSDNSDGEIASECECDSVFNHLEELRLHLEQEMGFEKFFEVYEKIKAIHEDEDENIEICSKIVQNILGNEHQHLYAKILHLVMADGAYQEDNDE
Method: as §1

[4] = biological target: T4, ~100 representative kinases (Homo sapiens, UniProt P24941); assay: DSF 100 kinase selectivity screen; details: Protein CDK2; average of three replicates;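 note: compound tested at 20 µM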
T4 construct: Recombinant protein kinase domains with a concentration of 2 μM
Method: as §1

[5] = biological target: T5, ~100 representative kinases (Homo sapiens, UniProt P49137); assay: DSF 100 kinase selectivity screen; details: protein MAPKAPK2; average of three replicates;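 note: compound tested at 20 µM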
T5 construct: Recombinant protein kinase domains with a concentration of 2 μM
T5 sequence (P49137 whole entry, the tested form may be a part): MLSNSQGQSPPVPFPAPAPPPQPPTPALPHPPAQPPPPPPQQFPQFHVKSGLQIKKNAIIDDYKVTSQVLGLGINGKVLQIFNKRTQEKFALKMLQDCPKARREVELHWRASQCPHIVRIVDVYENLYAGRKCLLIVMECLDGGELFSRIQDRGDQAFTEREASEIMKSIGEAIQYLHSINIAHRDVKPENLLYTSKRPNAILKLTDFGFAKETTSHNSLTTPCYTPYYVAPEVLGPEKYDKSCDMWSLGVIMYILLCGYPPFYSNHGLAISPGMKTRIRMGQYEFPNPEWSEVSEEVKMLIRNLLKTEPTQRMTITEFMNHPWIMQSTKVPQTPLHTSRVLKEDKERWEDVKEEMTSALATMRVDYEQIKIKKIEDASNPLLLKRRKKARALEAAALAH
Method: as §1

[6] = biological target: T6, ~100 representative kinases (Homo sapiens, UniProt O15075); assay: DSF 100 kinase selectivity screen; details: Protein DCAMKL1; average of three replicates;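 note: compound tested at 20 µM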
T6 construct: Recombinant protein kinase domains with a concentration of 2 μM
T6 sequence (O15075 whole entry, the tested form may be a part): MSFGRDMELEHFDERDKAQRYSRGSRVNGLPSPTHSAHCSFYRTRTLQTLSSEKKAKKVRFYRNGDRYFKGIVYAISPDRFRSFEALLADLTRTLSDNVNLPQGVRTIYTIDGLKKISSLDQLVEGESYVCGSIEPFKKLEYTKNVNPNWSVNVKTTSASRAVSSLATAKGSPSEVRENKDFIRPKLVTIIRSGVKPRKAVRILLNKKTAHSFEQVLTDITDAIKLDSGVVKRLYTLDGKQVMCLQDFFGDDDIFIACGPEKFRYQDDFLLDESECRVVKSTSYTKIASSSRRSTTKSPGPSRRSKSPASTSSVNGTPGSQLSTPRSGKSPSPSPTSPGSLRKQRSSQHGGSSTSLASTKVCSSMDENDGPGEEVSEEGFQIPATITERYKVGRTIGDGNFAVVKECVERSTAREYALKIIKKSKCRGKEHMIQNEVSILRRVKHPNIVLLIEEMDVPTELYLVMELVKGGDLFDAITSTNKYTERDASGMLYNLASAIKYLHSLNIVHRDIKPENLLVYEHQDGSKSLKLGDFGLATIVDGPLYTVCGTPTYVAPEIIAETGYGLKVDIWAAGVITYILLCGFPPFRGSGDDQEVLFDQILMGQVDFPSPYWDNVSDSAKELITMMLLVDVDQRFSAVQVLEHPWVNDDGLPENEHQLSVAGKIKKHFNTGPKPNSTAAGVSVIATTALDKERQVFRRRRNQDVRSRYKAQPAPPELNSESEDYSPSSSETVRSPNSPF
Method: as §1

[7] = biological target: T7, ~100 representative kinases (Homo sapiens, UniProt Q9P289); assay: DSF 100 kinase selectivity screen; details: protein MST4; average of three replicates
T7 construct: Recombinant protein kinase domains with a concentration of 2 μM
T7 sequence (Q9P289 whole entry, the tested form may be a part): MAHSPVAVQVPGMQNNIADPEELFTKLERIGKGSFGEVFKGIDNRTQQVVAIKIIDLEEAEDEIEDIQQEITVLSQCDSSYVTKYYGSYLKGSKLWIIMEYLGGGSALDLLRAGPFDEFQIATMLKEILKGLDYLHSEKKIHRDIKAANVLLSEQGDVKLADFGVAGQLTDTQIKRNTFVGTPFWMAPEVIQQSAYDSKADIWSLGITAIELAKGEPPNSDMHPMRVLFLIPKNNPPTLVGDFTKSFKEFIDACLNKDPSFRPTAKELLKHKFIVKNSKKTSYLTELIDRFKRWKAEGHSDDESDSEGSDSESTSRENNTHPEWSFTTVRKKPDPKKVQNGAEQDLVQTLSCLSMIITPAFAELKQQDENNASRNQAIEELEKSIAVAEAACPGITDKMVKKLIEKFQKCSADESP
Method: as §1

[8] = biological target: T8, LRRK2^KW (Homo sapiens, UniProt Q5S007); assay: DSF thermal stabilization of LRRK2^KW; details: DSF, LRRK2^KW, 10 μM inhibitor
T8 construct: LRRK2 R1847 to E2527; His6-Z-tag (TEV cleavable) (N, cleaved yes); host or cells: Sf9 insect cells (baculovirus)
T8 sequence (Q5S007 1847-2527): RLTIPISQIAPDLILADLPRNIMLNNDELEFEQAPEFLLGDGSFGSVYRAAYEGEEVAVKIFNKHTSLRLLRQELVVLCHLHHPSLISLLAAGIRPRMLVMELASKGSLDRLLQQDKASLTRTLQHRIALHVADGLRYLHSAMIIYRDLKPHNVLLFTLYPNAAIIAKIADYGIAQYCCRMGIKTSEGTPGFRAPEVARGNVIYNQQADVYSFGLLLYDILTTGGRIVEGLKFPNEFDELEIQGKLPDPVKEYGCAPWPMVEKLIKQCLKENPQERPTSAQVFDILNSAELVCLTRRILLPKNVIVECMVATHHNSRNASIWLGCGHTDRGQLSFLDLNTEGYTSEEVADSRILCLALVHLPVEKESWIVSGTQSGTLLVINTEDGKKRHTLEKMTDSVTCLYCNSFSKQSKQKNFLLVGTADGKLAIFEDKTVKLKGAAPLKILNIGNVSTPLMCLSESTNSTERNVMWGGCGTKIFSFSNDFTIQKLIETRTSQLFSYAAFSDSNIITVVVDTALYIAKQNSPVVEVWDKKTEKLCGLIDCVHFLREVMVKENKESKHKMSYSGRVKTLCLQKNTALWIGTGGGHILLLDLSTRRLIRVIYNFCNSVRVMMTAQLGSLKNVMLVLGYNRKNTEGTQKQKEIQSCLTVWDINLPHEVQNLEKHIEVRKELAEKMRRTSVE
How it was run: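 DSF on 4 μM LRRK2^KW in 20 mM Hepes pH 7.4, 150 mM NaCl, 0.5 mM TCEP, 0.5% glycerol, 20 μM GDP, 2.5 mM MgCl2 with SYPRO Orange; inhibitor at 10 μM. Tm was taken as the minimum of the first derivative of fluorescence versus temperature, relative to control.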

Structure (SMILES)	dTm [1]	dTm [2]	dTm [3]	dTm [4]	dTm [5]	dTm [6]	dTm [7]	∆Tm (K) [8]
Cc1ccc(C(=O)Nc2ccc(CN3CCN(C)CC3)c(C(F)(F)F)c2)cc1C#Cc1cnc2[nH]ncc2c1 [GZD-824, reference compound]	12.20 K	0.87 K	1.45 K	4.99 K	-0.24 K	0.30 K	8.85 K	21.2 ± 2.5 K
O=C(Nc1cccc(-c2c[nH]c3ncnc(N4CCOCC4)c23)c1)C1(C(=O)Nc2cccc3c2CCC3)CC1 [Compound 11]	0.52 K	1.31 K	-2.39 K	4.66 K	-0.26 K	2.70 K	0.22 K	9.2 K
COc1cc(C(=O)N2CCOCC2)c(F)cc1Nc1nc(N(C)C)c2c(Cl)c[nH]c2n1 [Compound 36]	-0.10 K	1.60 K	0.22 K	-0.66 K	2.68 K	2.05 K	-3.37 K	16.0 K
O=C(Nc1cccc(-c2c[nH]c3ncnc(N4CCOCC4)c23)c1)C1(C(=O)Nc2ccc(F)c(Br)c2F)CC1 [Compound 26]	0.99 K	-0.03 K	-0.27 K	3.97 K	-1.06 K	3.55 K	1.39 K	10.7 K
CCc1ccc(NC(=O)C2(C(=O)Nc3cccc(-c4c[nH]c5ncnc(N6CCOCC6)c45)c3)CC2)cc1 [Compound 15]	0.64 K	-0.47 K	0.19 K	9.83 K	0.05 K	0.05 K	2.78 K	9.1 K
Cc1ccc(-n2nc(C(C)(C)C)cc2NC(=O)Nc2cccc(-c3c[nH]c4ncnc(N5CCOCC5)c34)c2)cc1 [Compound 29]	5.95 K	-0.31 K	-1.22 K	12.74 K	-0.55 K	2.98 K	3.56 K	21.0 K
Cc1ccc(C(=O)Nc2ccc(CN3CCN(C)CC3)c(C(F)(F)F)c2)cc1C#Cc1c[nH]c2ncnc(N3CCOCC3)c12 [Compound 1]	2.59 K	0.68 K	-0.11 K	3.53 K	-0.41 K	-0.0556 K	4.54 K	9.5 K
CNC(=O)c1cc(Oc2ccc(NC(=O)Nc3cc(C(C)(C)C)nn3-c3ccc4ncccc4c3)c(F)c2)ccn1 [Rebastinib, reference compound]	5.75 K	0.54 K	2.10 K	9.06 K	0.44 K	3.67 K	5.29 K	18.5 K and 18.5 ± 0.7 K

The next lines start with the values.

dTm [1]	dTm [2]	dTm [3]	dTm [4]	dTm [5]	dTm [6]	dTm [7]	∆Tm (K) [8]	Structure (SMILES)
2.20 K	0.11 K	-0.32 K	6.75 K	0.22 K	2.36 K	6.98 K	12.3 K	O=C(Nc1cccc(-c2c[nH]c3ncnc(N4CCOCC4)c23)c1)C1(C(=O)Nc2ccc(F)c(Cl)c2)CC1 [Compound 18]
0.77 K	-0.09 K	0.23 K	7.03 K	-0.14 K	-0.07 K	3.59 K	9.1 K	Cc1ccc(NC(=O)C2(C(=O)Nc3cccc(-c4c[nH]c5ncnc(N6CCOCC6)c45)c3)CC2)cc1 [Compound 14]
1.36 K	0.06 K	0.54 K	8.33 K	0.68 K	2.89 K	5.13 K	9.5 K	O=C(Nc1ccc(Cl)cc1)C1(C(=O)Nc2cccc(-c3c[nH]c4ncnc(N5CCOCC5)c34)c2)CC1 [Compound 13]
0.70 K	-0.34 K	0.34 K	5.86 K	-0.05 K	-1.88 K	1.30 K	4.3 K	COc1ccc(NC(=O)C2(C(=O)Nc3cccc(-c4c[nH]c5ncnc(N6CCOCC6)c45)c3)CC2)cc1 [Compound 16]
0.81 K	-0.19 K	-0.14 K	3.87 K	-0.55 K	-1.61 K	2.44 K	8.5 K	Cc1cc(F)ccc1NC(=O)C1(C(=O)Nc2cccc(-c3c[nH]c4ncnc(N5CCOCC5)c34)c2)CC1 [Compound 24]
1.11 K	-0.20 K	0.29 K	5.91 K	-0.12 K	1.90 K	6.01 K	10.3 K	O=C(Nc1cccc(-c2c[nH]c3ncnc(N4CCOCC4)c23)c1)C1(C(=O)Nc2ccc(F)c(F)c2)CC1 [Compound 17]
1.39 K	-0.09 K	-0.0539 K	4.67 K	-0.29 K	1.25 K	6.10 K	9.3 K	COc1cc(NC(=O)C2(C(=O)Nc3cccc(-c4c[nH]c5ncnc(N6CCOCC6)c45)c3)CC2)ccc1F [Compound 21]
